Data: the NIST ThermoML archive (doi:10.1016/j.jct.2016.06.018)

Test: mn = molality of the nth substance listed, in mol/kg
Conditions: 101 kPa, Liquid, Vibrating tube method

CCCCCCCCCCCC[N+](C)(C)CCOc1ccccc1.[Br-] [Domiphen bromide] + O
mass density [kg/m3]
Conditions	293.15 K	298.15 K	303.15 K	308.15 K
m1 = 0.04	999.65	998.37	996.97	995.39
m1 = 0.08	1000.98	999.84	998.36	996.78
